23 substances from patent US8598120B2 (Amylin Pharmaceuticals, LLC, priority 2004, dated 2013) can be followed below.

* marks the point of attachment. Pentanoyl(4-Me) = CC(C)CCC(=O)*; For = O=C*

This assay is described as follows: Food intake assay in overnight fasted mice. It counts as in vivo. Conditions: 25 nmol/kg intraperitoneal. The procedure: Female NIH/Swiss mice (8-14 weeks old) were group housed with a 12:12 hour light:dark cycle. Water and a standard pelleted mouse chow diet are available ad libitum, except as noted. Animals are fasted starting at approximately 1500 hrs, 1 day prior to experiment.
The effects of treatment on food intake are expressed as % change relative to control.

For the substance “Isocaproyl-STAVLG[K(For)]LSQELH[K(For)]LQTYPRTNTGSGTP ({Pentanoyl(4-Me)}-STAVLGK(For)LSQELHK(For)LQTYPRTNTGSGTP-NH2; SMILES CC(C)CCC(=O)N[C@@H](CO)C(=O)N[C@H](C(=O)N[C@@H](C)C(=O)N[C@H](C(=O)N[C@@H](CC(C)C)C(=O)NCC(=O)N[C@@H](CCCCNC=O)C(=O)N[C@@H](CC(C)C)C(=O)N[C@@H](CO)C(=O)N[C@@H](CCC(N)=O)C(=O)N[C@@H](CCC(=O)O)C(=O)N[C@@H](CC(C)C)C(=O)N[C@@H](Cc1c[nH]cn1)C(=O)N[C@@H](CCCCNC=O)C(=O)N[C@@H](CC(C)C)C(=O)N[C@@H](CCC(N)=O)C(=O)N[C@H](C(=O)N[C@@H](Cc1ccc(O)cc1)C(=O)N1CCC[C@H]1C(=O)N[C@@H](CCCNC(=N)N)C(=O)N[C@H](C(=O)N[C@@H](CC(N)=O)C(=O)N[C@H](C(=O)NCC(=O)N[C@@H](CO)C(=O)NCC(=O)N[C@H](C(=O)N1CCC[C@H]1C(N)=O)[C@@H](C)O)[C@@H](C)O)[C@@H](C)O)[C@@H](C)O)C(C)C)[C@@H](C)O) [Compound 30]”, the “cumulative food intake compared to vehicle, 30 min” value was −1%; the “cumulative food intake compared to vehicle, 60 min” value is listed as −2%; the “cumulative food intake compared to vehicle, 120 min” value was −19%.
For the substance “KCDTATCVLGRLSQELHRLQTYPRTNTGSNTY [Compound 111]”, the “cumulative food intake compared to vehicle, 30 min” value is reported as −39%; the “cumulative food intake compared to vehicle, 60 min” value is −37%; the “cumulative food intake compared to vehicle, 120 min” value is recorded as −32%.
“KCDTATCVTHRLAGLLSRSQTYPRTNTGSNTY [Compound 94]”: the “cumulative food intake compared to vehicle, 30 min” value is listed as −62%; the “cumulative food intake compared to vehicle, 60 min” value is reported as −42%; the “cumulative food intake compared to vehicle, 120 min” value is reported as −36%; the “cumulative food intake compared to vehicle, 180 min” value is listed as −31%.
On to “KCNAATCVLGRLSQELHRLQTYPRTNTGSNTY [Compound 17]”, for which the “cumulative food intake compared to vehicle, 30 min” value is −42%; the “cumulative food intake compared to vehicle, 60 min” value is −30%; the “cumulative food intake compared to vehicle, 120 min” value is −30%; the “cumulative food intake compared to vehicle, 180 min” value is reported as −25%.
Take “KCNTAACVLGRLSQELHRLQTYPRTNTGSNTY [Compound 18]”: the “cumulative food intake compared to vehicle, 30 min” value is recorded as −2%; the “cumulative food intake compared to vehicle, 60 min” value is reported as −7%; the “cumulative food intake compared to vehicle, 120 min” value is −16%; the “cumulative food intake compared to vehicle, 180 min” value is reported as −21%.
The matching figures for “KCNTASCVLGRLSQELHRLQTYPRTNTGSNTY [Compound 36]”: −34%, −22%, −24% and −25%.
On to “KCNTATCATQRLSQELHRLQTYPRTNTGSNTY [Compound 51]”, for which the “cumulative food intake compared to vehicle, 30 min” value is −44%; the “cumulative food intake compared to vehicle, 60 min” value was −39%; the “cumulative food intake compared to vehicle, 120 min” value was −35%.
In the same order, the values of “KCNTATCATQRLSQELHRLQTYPRTNVGSNTY [Compound 52]” are −29%, −24% and −23%.
In the case of “KCNTATCLLQQLQKLLQKLKQYPRTNTGSNTY [Compound 35]”, the “cumulative food intake compared to vehicle, 30 min” value is given as −20%; the “cumulative food intake compared to vehicle, 60 min” value was −16%; the “cumulative food intake compared to vehicle, 120 min” value is on record as −18%.
In the same order, the values of “KCNTATCMLGRYTQDFHRLQTYPRTNTGSNTY [Compound 66]” are −13%, −15% and −28%.
In the same order, the values of “KCNTATCVLG(homoK)LSQELH(homoK)LQTYPRTNTGSNTY [Compound 63]” are −19%, −22% and −28%.
The matching figures for “KCNTATCVLG(homoR)LSQELH(homoR)LQTYPRTNTGSNTY [Compound 74]”: −42%, −32% and −31%.
For “KCNTATCVLGKLSQELHKLQTYPRTNTGSNTY [Compound 49]”, the “cumulative food intake compared to vehicle, 30 min” value was −33%; the “cumulative food intake compared to vehicle, 60 min” value is −26%; the “cumulative food intake compared to vehicle, 120 min” value is −25%.
In the same order, the values of “KCNTATCVLGRLAAALHRLQTYPRTNTGSNTY [Compound 113]” are −79%, −86% and −55%.
As to “KCNTATCVLGRLAAFLHRLQTYPRTNTGSNTY [Compound 96]”, the “cumulative food intake compared to vehicle, 30 min” value is recorded as −49%; the “cumulative food intake compared to vehicle, 60 min” value is on record as −38%; the “cumulative food intake compared to vehicle, 120 min” value is reported as −19%; the “cumulative food intake compared to vehicle, 180 min” value is recorded as −23%.
The matching figures for “KCNTATCVLGRLADALHRLQTYPRTNTGSNTY [Compound 95]”: −81%, −69%, −34% and −31%.
Regarding “KCNTATCVLGRLADFLHRFHTFPRTNTGSNTY [Compound 108]”, the “cumulative food intake compared to vehicle, 30 min” value is −70%; the “cumulative food intake compared to vehicle, 60 min” value was −66%; the “cumulative food intake compared to vehicle, 120 min” value is on record as −38%.
As to “KCNTATCVLGRLADFLHRFQTFPRTNTGSGTP [Compound 109]”, the “cumulative food intake compared to vehicle, 30 min” value is −61%; the “cumulative food intake compared to vehicle, 60 min” value was −54%; the “cumulative food intake compared to vehicle, 120 min” value is −43%.
The matching figures for “KCNTATCVLGRLADFLHRFQTFPRTNTGSNTY [Compound 107]”: −84%, −78% and −47%.
Take “KCNTATCVLGRLADFLHRLQTYPRTNTGSNTY [Compound 88]”: the “cumulative food intake compared to vehicle, 30 min” value is recorded as −64%; the “cumulative food intake compared to vehicle, 60 min” value is reported as −61%; the “cumulative food intake compared to vehicle, 120 min” value is given as −39%; the “cumulative food intake compared to vehicle, 180 min” value was −22%.
“KCNTATCVLGRLAEFLHRLQTYPRTNTGSNTY [Compound 104]”: the “cumulative food intake compared to vehicle, 30 min” value is listed as −69%; the “cumulative food intake compared to vehicle, 60 min” value is −67%; the “cumulative food intake compared to vehicle, 120 min” value is −54%.
For “KCNTATCVLGRLANFLHRLQTYPRTNTGSNTY [Compound 14]”, the “cumulative food intake compared to vehicle, 30 min” value is reported as −52%; the “cumulative food intake compared to vehicle, 60 min” value was −36%; the “cumulative food intake compared to vehicle, 120 min” value is −28%; the “cumulative food intake compared to vehicle, 180 min” value is −33%.
As to “KCNTATCVLGRLAQFLHRLQTYPRTNTGSNTY [Compound 106]”, the “cumulative food intake compared to vehicle, 30 min” value is −58%; the “cumulative food intake compared to vehicle, 60 min” value is listed as −54%; the “cumulative food intake compared to vehicle, 120 min” value is listed as −39%.
